Measured values: PubChem BioAssay (NCI)
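A five-concentration, 48-hour dose response in 96-well plates underlies each endpoint, interpolated linearly between surrounding concentrations. TGI: total growth inhibition.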

Assays:
Assay in all cases: NCI tumour cell line growth inhibition, 48 h
[1] = tested on: SK-MEL-28 melanoma
[2] = tested on: CAKI-1 renal
[3] = tested on: MALME-3M melanoma
[4] = tested on: M14 melanoma
[5] = tested on: UACC-62 melanoma
[6] = tested on: SF-539 CNS
[7] = tested on: TK-10 renal
[8] = tested on: RPMI-8226 leukemia
[9] = tested on: ACHN renal
[10] = tested on: OVCAR-8 ovarian
[11] = tested on: U251 CNS
[12] = tested on: 786-0 renal
[13] = tested on: HOP-92 NSCLC
[14] = tested on: DMS 114 small cell lung
[15] = tested on: HCC-2998 colon
[16] = tested on: SNB-78 CNS
[17] = tested on: HOP-62 NSCLC
[18] = tested on: KM12 colon
[19] = tested on: A549 NSCLC
[20] = tested on: IGROV1 ovarian
[21] = tested on: M19-MEL melanoma
[22] = tested on: CCRF-CEM leukemia
[23] = tested on: A498 renal
[24] = tested on: SF-295 CNS
[25] = tested on: OVCAR-3 ovarian
[26] = tested on: OVCAR-5 ovarian
[27] = tested on: UACC-257 melanoma
[28] = tested on: SN12C renal
[29] = tested on: DLD-1 colon
[30] = tested on: SNB-75 CNS
[31] = tested on: SW-620 colon
[32] = tested on: DMS 273 small cell lung
[33] = tested on: SR leukemia
[34] = tested on: KM20L2 colon
[35] = tested on: NCI-H460 lung
[36] = tested on: HOP-18 NSCLC
[37] = tested on: EKVX NSCLC
[38] = tested on: SNB-19 CNS
[39] = tested on: SF-268 CNS
[40] = tested on: UO-31 renal
[41] = tested on: RXF 393 renal
[42] = tested on: MOLT-4 leukemia
[43] = tested on: HL-60(TB) leukemia
[44] = tested on: LOX IMVI melanoma
[45] = tested on: SK-MEL-5 melanoma
[46] = tested on: NCI-H226 lung
[47] = tested on: LXFL 529 NSCLC
[48] = tested on: OVCAR-4 ovarian
[49] = tested on: HCT-15 colon
[50] = tested on: COLO 205 colon
[51] = tested on: SK-OV-3 ovarian
[52] = tested on: HCT-116 colon
[53] = tested on: HT29 colon
[54] = tested on: NCI-H522 lung
[55] = tested on: SK-MEL-2 melanoma
[56] = tested on: NCI-H23 lung
[57] = tested on: K-562 leukemia

`C=CCC12CCC(=O)[C@@]1(C)CC=C(O)C2=O` (stereo partly specified) was tested, and the TGI [1] was > 100 µM, the TGI [2] was > 100 µM and the TGI [3] was > 100 µM. For the same compound, the TGI [4] was > 100 µM, the TGI [5] was > 100 µM and the TGI [6] was > 100 µM. The TGI [7] was > 100 µM, the TGI [8] was > 100 µM and the TGI [9] was > 100 µM. The TGI [10] was > 100 µM, the TGI [11] was > 100 µM and the TGI [12] was > 100 µM. For the same compound, the TGI [13] was > 100 µM, the TGI [14] was > 100 µM and the TGI [15] was > 100 µM. The TGI [16] was > 100 µM, the TGI [17] was > 100 µM and the TGI [18] was > 100 µM. For the same compound, the TGI [19] was > 100 µM, the TGI [20] was > 100 µM and the TGI [21] was > 100 µM. The TGI [22] was > 100 µM, the TGI [23] was > 100 µM and the TGI [24] was > 100 µM. For the same compound, the TGI [25] was > 100 µM, the TGI [26] was > 100 µM and the TGI [27] was > 100 µM. For the same compound, the TGI [28] was > 100 µM, the TGI [29] was > 100 µM and the TGI [30] was > 100 µM. For the same compound, the TGI [31] was > 100 µM, the TGI [32] was > 100 µM and the TGI [33] was > 100 µM. The TGI [34] was > 100 µM, the TGI [35] was > 100 µM and the TGI [36] was > 100 µM. For the same compound, the TGI [37] was > 100 µM, the TGI [38] was > 100 µM and the TGI [39] was > 100 µM. For the same compound, the TGI [40] was > 100 µM, the TGI [41] was > 100 µM and the TGI [42] was > 100 µM. The TGI [43] was > 100 µM, the TGI [44] was > 100 µM and the TGI [45] was > 100 µM. The TGI [46] was > 100 µM, the TGI [47] was > 100 µM and the TGI [48] was > 100 µM. The TGI [49] was > 100 µM, the TGI [50] was > 100 µM and the TGI [51] was > 100 µM. The TGI [52] was > 100 µM, the TGI [53] was > 100 µM and the TGI [54] was > 100 µM.
In the case of `O=c1c(O)cc2c(O)oc3c(=O)c(O)c(O)c4c(O)oc1c2c43`, the TGI [1] is reported as > 100 µM, the TGI [2] is reported as > 100 µM and the TGI [3] is reported as > 100 µM. For the same compound, the TGI [4] was > 100 µM, the TGI [5] was > 100 µM and the TGI [6] was > 100 µM. For the same compound, the TGI [7] was > 100 µM, the TGI [8] was > 100 µM and the TGI [9] was > 100 µM. The TGI [10] was > 100 µM, the TGI [11] was 34.3 µM and the TGI [12] was > 100 µM. The TGI [13] was > 100 µM, the TGI [14] was 67.7 µM and the TGI [15] was > 100 µM. For the same compound, the TGI [16] was > 100 µM, the TGI [17] was > 100 µM and the TGI [18] was > 100 µM. For the same compound, the TGI [19] was > 100 µM, the TGI [20] was > 100 µM and the TGI [21] was 25 µM. For the same compound, the TGI [22] was > 100 µM, the TGI [23] was > 100 µM and the TGI [24] was 50.4 µM. The TGI [25] was > 100 µM, the TGI [26] was > 100 µM and the TGI [27] was > 100 µM. For the same compound, the TGI [55] was > 100 µM, the TGI [28] was 36.5 µM and the TGI [29] was > 100 µM. For the same compound, the TGI [30] was > 100 µM, the TGI [31] was > 100 µM and the TGI [32] was > 100 µM. For the same compound, the TGI [33] was > 100 µM, the TGI [34] was > 100 µM and the TGI [35] was > 100 µM. The TGI [36] was > 100 µM, the TGI [56] was > 100 µM and the TGI [37] was > 100 µM. For the same compound, the TGI [38] was > 100 µM, the TGI [39] was > 100 µM and the TGI [40] was > 100 µM. The TGI [41] was > 100 µM, the TGI [42] was 72.2 µM and the TGI [43] was > 100 µM. For the same compound, the TGI [44] was 34.1 µM, the TGI [45] was > 100 µM and the TGI [46] was > 100 µM. The TGI [47] was > 100 µM, the TGI [48] was 33.3 µM and the TGI [49] was > 100 µM. The TGI [50] was > 100 µM, the TGI [57] was 57.9 µM and the TGI [51] was > 100 µM. The TGI [52] was > 100 µM, the TGI [53] was > 100 µM and the TGI [54] was > 100 µM.
